Measured values: BindingDB's records for doi:10.1016/j.ejmech.2015.01.009 (Universiti Teknologi Mara (Uitm), 2015)

Assay: Inhibition of alpha-glucosidase (unknown origin) using pNPG substrate incubated for 15 mins by microplate reader based method

IC50 | SMILES
8.48 µM | O=C(N/N=C/c1cccs1)c1ccc(-c2nc3ccccc3s2)cc1
5.55 µM | O=C(N/N=C/c1ccccc1O)c1ccc(-c2nc3ccccc3s2)cc1
12.8 µM | O=C(N/N=C\c1ccco1)c1ccc(-c2nc3ccccc3s2)cc1
11.2 µM | O=C(N/N=C/c1cccc(O)c1O)c1ccc(-c2nc3ccccc3s2)cc1
11.3 µM | O=C(N/N=C/c1ccc(O)cc1)c1ccc(-c2nc3ccccc3s2)cc1
10.2 µM | O=C(N/N=C\c1ccccn1)c1ccc(-c2nc3ccccc3s2)cc1
5.58 µM | O=C(N/N=C/c1ccc(O)cc1O)c1ccc(-c2nc3ccccc3s2)cc1
11.8 µM | O=C(N/N=C/c1cc(O)ccc1O)c1ccc(-c2nc3ccccc3s2)cc1
7.12 µM | O=C(N/N=C/c1ccc(F)cc1)c1ccc(-c2nc3ccccc3s2)cc1
16.2 µM | COc1cc(/C=N/NC(=O)c2ccc(-c3nc4ccccc4s3)cc2)cc(OC)c1
26.4 µM | O=C(N/N=C/c1ccc([N+](=O)[O-])cc1)c1ccc(-c2nc3ccccc3s2)cc1
8.05 µM | O=C(N/N=C/c1ccccc1)c1ccc(-c2nc3ccccc3s2)cc1
5.31 µM | O=C(N/N=C/c1ccc(Cl)cc1)c1ccc(-c2nc3ccccc3s2)cc1
11.1 µM | COc1cccc(/C=N/NC(=O)c2ccc(-c3nc4ccccc4s3)cc2)c1
9.21 µM | O=C(N/N=C/c1cccc(O)c1)c1ccc(-c2nc3ccccc3s2)cc1
8.07 µM | O=C(N/N=C/c1ccc(O)c(Br)c1)c1ccc(-c2nc3ccccc3s2)cc1
28 µM | O=C(N/N=C/c1ccc(F)c(Br)c1)c1ccc(-c2nc3ccccc3s2)cc1
11.1 µM | O=C(N/N=C/c1cc(O)cc(O)c1)c1ccc(-c2nc3ccccc3s2)cc1
8.37 µM | O=C(N/N=C/c1c(O)cc(O)cc1O)c1ccc(-c2nc3ccccc3s2)cc1
53.3 µM | COc1cc(/C=N/NC(=O)c2ccc(-c3nc4ccccc4s3)cc2)ccc1O
44.8 µM | COc1ccc(/C=N/NC(=O)c2ccc(-c3nc4ccccc4s3)cc2)c(I)c1O
15.1 µM | O=C(N/N=C/c1ccc(O)c(O)c1)c1ccc(-c2nc3ccccc3s2)cc1
6.97 µM | COc1ccc(/C=N/NC(=O)c2ccc(-c3nc4ccccc4s3)cc2)c(O)c1
18.3 µM | COc1ccc(/C=N/NC(=O)c2ccc(-c3nc4ccccc4s3)cc2)cc1
6.5 µM | COc1ccc(O)c(/C=N/NC(=O)c2ccc(-c3nc4ccccc4s3)cc2)c1
